Test results published in patent US10925887B2, “Steroid saponins with anti-cancer activity” (Oncology Research International Limited, priority 2017, dated 2021).

Tests used:
Type in all cases: cell-based
MCF-7 = assay: CellTiter-Blue cell growth inhibition assay, MCF-7; conditions: Homo sapiens, MCF7, 48 h
Protocol: (§1) Duplicate experiments were performed using the CellTiter-Blue® Cell Viability Assay to determine IC50 values for Compound A, Compound B and Compound C against each cell line. The general methodology for preparation of test articles described in Example 6 was used. The test compounds compound A, compound C disodium salt and compound B ½ maleate salt were initially formulated as 100× stock solutions at a concentration of 10 mg/mL in the appropriate diluents (DMSO for compounds). These stock solutions were then further diluted in cell culture medium to achieve lower concentrations of 100, 50, 25, 12.5, 6.25 and 3.125, 1.563, 0.781, 0.390 and 0.195 μM of active component. The specific cancer cells were A549, HCT 116, MCF-7 and MIA PaCa-2.
(§2) Human cancer cell types were: HTC-116 (colon); A549 (Lung); HT29 (colon); MCF-7; Mia PaCa-2 (pancreas)
(§3) Cells were seeded in duplicate at 3-4,000 per microtitre well in 50 μl of cell culture medium . After 24 hours, 50 μL of test article or vehicle control prepared in medium at 2× required concentration were added to each well. Cancer cells were allowed to grow in the presence of drug for 48 hours before cell growth relative to untreated control wells was determined with CellTiter-Blue® Cell Viability Assay.
(§4) IC50 values were calculated using Prism 6 for Mac OS X using a nonlinear regression (log(inhibitor) vs. response—Variable slope (four parameters)

HCT 116 = assay: CellTiter-Blue cell growth inhibition assay, HCT 116; conditions: Homo sapiens, HCT-116, 48 h
Protocol: as §1, §2, §3, §4

[1] = system: washed human erythrocytes; assay: in vitro haemolysis assay; conditions: for HD50 (50% haemolytic dose): washed human erythrocytes, 3 hours at 37° C.
Protocol: Haemolysis is a clinical condition where the red cell membrane is irreversibly damaged causing the release of its haemoglobin content. The in vitro haemolysis assay is a simple test to determine the haemolytic potential of a test substance on isolated and washed red blood cells.
In this example three compounds identified as compound A, compound C disodium salt and compound B ½ maleate salt and Saponin from Quillaja bark (S4521) were tested for haemolytic potential using washed human erythrocytes. The compounds were tested over a dose curve with a maximum concentration of […] and a lowest concentration of […]. The concentration range is […].
Briefly, whole blood (40 mL) was collected from a single human volunteer into multiple EDT vacutainer tubes. The red blood cells (RBC) were washed and isolated from plasma components by three centrifugations at 3000 rpm for 5 minutes in isotonic 0.9% sodium chloride. After the final wash, 0.1 mL volumes of red blood cells were added to each treatment tube.
The test compounds compound A, compound C disodium salt and compound B % maleate salt and the reference article (Saponin S4521) were initially formulated as 100× stock solutions at a concentration of 10 mg/mL in the appropriate diluents (DMSO for compounds, 0.9% NaCl for Saponin S4521). These stock solutions were then further diluted 1:100 in 0.9% NaCl to prepare the highest concentration of […] in 1% DMSO/NaCl. The highest concentration solutions were further diluted serially 1:2 in 1% DMSONaC1 to achieve lower concentrations of 50, 25, 12.5, 6.25, 3.125, 1.562 and 0.781 pg/ml of active component.
The positive control article (hypertonic solution of […]) was formulated by weighing 2.92 g NaCl in 10 mL MilliQ water. The negative control article (isotonic solution of 0.154M NaCl) was formulated on the day of use by dissolving 0.09 g NaCl into 10 mL MilliQ water. The vehicle used to dilute the test articles, 1% DMSO/NaCl, was used as the reagent blank in the assay.
Tubes containing cells and treatments were incubated at 37° C. with gentle agitation in an orbital mixer for 3 hours. At completion of the incubation, tubes were centrifuged at 3000 rpm for 5 minutes and 200 ptL aliquots of supernatant from each tube were transferred to a 96-well microplate for measurement of absorbance at 535 nm. A layout for the 96-Nell microplate is presented in Appendix 1. A 1% DMSO/NaCl vehicle in the absence of blood was used as the reagent blank in the assay.
Mean values for the negative (0.154M NaCl), positive (5M NaCl) and blank triplicate wells were determined. These were then used to calculate the % haemolysis for each sample according to the following formula: […]
Calculations of 50% haemolytic dose (HD50) was performed by non-linear regression analyses using a log(agonist) vs normalized response variable slope curve fit on GraphPad Prism for Mac OS X (Version 5.0c, GraphPad Software, California, USA).

MIA PaCa-2 = assay: CellTiter-Blue cell growth inhibition assay, MIA PaCa-2; conditions: Homo sapiens, MIA PaCa-2, 48 h
Protocol: as §1, §2, §3, §4

PC-3 = assay: CellTiter-Blue cell growth inhibition assay, PC-3; conditions: Homo sapiens, PC-3, 48 h
A549 = assay: CellTiter-Blue cell growth inhibition assay, A549; conditions: Homo sapiens, A549, 48 h
Protocol: as §1, §2, §3, §4

[2] = HCT 116, Average ± SEM, 48 hours
[3] = HCT 116, Experiment 1, 48 hours
[4] = HCT 116, Experiment 2, 48 hours
[5] = MIA PaCa-2, Average ± SEM, 48 hours
[6] = MIA PaCa-2, Experiment 1, 48 hours
[7] = MIA PaCa-2, Experiment 2, 48 hours

| Compound | IC50 (MCF-7; MCF-7, Average ± SEM, 48 hours) [µM] | IC50 (MCF-7; MCF-7, Experiment 1, 48 hours) [µM] | IC50 (MCF-7; MCF-7, Experiment 2, 48 hours) [µM] | IC50 (HCT 116; [2]) [µM] | IC50 (HCT 116; [3]) [µM] | IC50 (HCT 116; [4]) [µM] | percent haemolysis ([1]; concentration 0.781 μg/ml) [%] | percent haemolysis ([1]; concentration 1.562 μg/ml) [%] | percent haemolysis ([1]; concentration 3.125 μg/ml) [%] | percent haemolysis ([1]; concentration 6.25 μg/ml) [%] | percent haemolysis ([1]; concentration 12.5 μg/ml) [%] | IC50 (MIA PaCa-2; [5]) [µM] | IC50 (MIA PaCa-2; [6]) [µM] | IC50 (MIA PaCa-2; [7]) [µM] | IC50 (PC-3; PC-3, Average ± SEM, 48 hours) [µM] | IC50 (PC-3; PC-3, Experiment 1, 48 hours) [µM] | IC50 (PC-3; PC-3, Experiment 2, 48 hours) [µM] | IC50 (A549; A549, Average ± SEM, 48 hours) [µM] | IC50 (A549; A549, Experiment 1, 48 hours) [µM] | IC50 (A549; A549, Experiment 2, 48 hours) [µM] | further results |
| --- | --- | --- | --- | --- | --- | --- | --- | --- | --- | --- | --- | --- | --- | --- | --- | --- | --- | --- | --- | --- | --- |
| CC1O[C@@H](OC2C(O)[C@H](O)C(CO)O[C@H]2O[C@H]2CC[C@@]3(C)C(=CC[C@H]4[C@@H]5C[C@@H]6O[C@]7(CC[C@@H](C)CO7)[C@@H](C)[C@@H]6[C@@]5(C)CC[C@@H]43)C2)C(O)C(O)[C@H]1O (stereo partly drawn) [Compound A, diosgenyl α-L-rhamnopyranosyl-(1→2)-β-D-glucopyranoside, reference compound] | 7.65 ± 0.27 | 7.91 | 7.38 | 5.1 ± 0.08 | 5.17 | 5.02 | −0.3 | 0.5 | −0.1 | 3.2 | 13.4 | 5.63 ± 0.55 | 6.17 | 5.08 | 6.14 ± 0.29 | 6.42 | 5.85 | 4.17 ± 0.57 | 4.74 | 3.6 | percent haemolysis ([1]; concentration 25 μg/ml): 36.0%; percent haemolysis ([1]; concentration 50 μg/ml): 86.7%; percent haemolysis ([1]; concentration 100 μg/ml): 103.2%; HD50 (50% haemolytic dose) [1]: 31.57 µg/mL |
| CC1O[C@@H](OC2C(O)[C@H](O)C(COC(=O)[C@@H](N)C(C)C)O[C@H]2O[C@H]2CC[C@@]3(C)C(=CC[C@H]4[C@@H]5C[C@@H]6O[C@]7(CC[C@@H](C)CO7)[C@@H](C)[C@@H]6[C@@]5(C)CC[C@@H]43)C2)C(O)C(O)[C@H]1O (stereo partly drawn) [Compound B] | 15 ± 0.32 | 14.7 | 15.3 | 12.4 ± 0.72 | 11.7 | 13.1 |  |  |  |  |  | 9.39 ± 1.77 | 11.2 | 7.62 | 11.7 ± 0.7 | 12.4 | 11 | 10.2 ± 0.31 | 9.86 | 10.5 |  |
| CC1O[C@@H](OC2C(O)[C@H](O)C(COP(=O)([O-])O)O[C@H]2O[C@H]2CC[C@@]3(C)C(=CC[C@H]4[C@@H]5C[C@@H]6O[C@]7(CC[C@@H](C)CO7)[C@@H](C)[C@@H]6[C@@]5(C)CC[C@@H]43)C2)C(O)C(O)[C@H]1O.[Na+] (stereo partly drawn) [Compound C disodium salt] |  |  |  |  |  |  | 1.0 | 1.9 | 0.5 | 1.6 | 0.5 |  |  |  |  |  |  |  |  |  | percent haemolysis ([1]; concentration 25 μg/ml): 1.8%; percent haemolysis ([1]; concentration 50 μg/ml): 2.9%; percent haemolysis ([1]; concentration 100 μg/ml): 51.9%; HD50 (50% haemolytic dose) [1]: 145.70 µg/mL |
| CC1O[C@@H](OC2C(O)[C@H](O)C(COP(=O)(O)O)O[C@H]2O[C@H]2CC[C@@]3(C)C(=CC[C@H]4[C@@H]5C[C@@H]6O[C@]7(CC[C@@H](C)CO7)[C@@H](C)[C@@H]6[C@@]5(C)CC[C@@H]43)C2)C(O)C(O)[C@H]1O (stereo partly drawn) [Compound C] | 4.17 ± 1.29 | 5.45 | 2.88 | 3.04 ± 1.05 | 4.08 | 1.99 |  |  |  |  |  | 3.04 ± 0.49 | 3.52 | 2.55 | 3.25 ± 1.07 | 4.32 | 2.18 | 2 ± 0.47 | 2.46 | 1.53 |  |
